Experiments:
rgRSV224 virus = experiment: microbe, parasite or virus in culture; assay type: cell-based, respiratory syncytial virus (RSV); details: for EC50: human respiratory syncytial virus, HeLa, 72 h, read-out: RSV HELA pEC50, rgRSV224 virus (MOI=1), HeLa cells, GFP expression three days post-virus exposure (converted)
HeLa cells = experiment: Cytotoxicity in HeLa cells, ATP content (ATPlite kit); details: three days incubation, CC50 = 50% concentration for cytotoxicity
Procedure: Black 384-well clear-bottom microtiter plates (Corning, Amsterdam, The Netherlands) were filled via acoustic drop ejection using the echo liquid handler (Labcyte, Sunnyvale, Calif.). 200 nL of compound stock solutions (100% DMSO) were transferred to the assay plates. 9 serial 4-fold dilutions of compound were made, creating per quadrant the same compound concentration. The assay was initiated by adding 10 μL of culture medium to each well (RPMI medium without phenol red, 10% FBS-heat inactivated, 0.04% gentamycin (50 mg/mL). All addition steps are done by using a multidrop dispenser (Thermo Scientific, Erembodegem, Belgium). Next, rgRSV224 virus (MOI=1) diluted in culture medium was added to the plates. rgRSV224 virus is an engineered virus that includes an additional GFP gene (Hallak L K, Spillmann D, Collins P L, Peeples M E. Glycosaminoglycan sulfation requirements for respiratory syncytial virus infection; Journal of virology (2000), 74(22), 10508-13) and was in-licensed from the NIH (Bethesda, Md., USA). Finally, 20 μL of a HeLa cell suspension (3,000 cells/well) were plated. Medium, virus- and mock-infected controls were included in each test. The wells contain 0.05% DMSO per volume. Cells were incubated at 37° C. in a 5% CO2 atmosphere. Three days post-virus exposure, viral replication was quantified by measuring GFP expression in the cells by an in house developed MSM laser microscope (Tibotec, Beerse, Belgium). The EC50 was defined as the 50% inhibitory concentration for GFP expression. In parallel, compounds were incubated for three days in a set of white 384-well microtiter plates (Corning) and the cytotoxicity of compounds in HeLa cells was determined by measuring the ATP content of the cells using the ATPlite kit (Perkin Elmer, Zaventem, Belgium) according to the manufacturer's instructions. The CC50 was defined as the 50% concentration for cytotoxicity.

## CS(=O)(=O)Nc1nc(N2CCCC[C@H]2c2cc3nc(N4CCC4)cc(N4CCOCC4)n3n2)c2cc(Cl)ccc2n1 (stereo in doubt) [P32, N-(4-(2-(5-(azetidin-1-yl)-7-morpholinopyrazolo[1,5-a]pyrimidin-2-yl)piperidin-1-yl)-6-chloroquinazolin-2-yl)methanesulfonamide]
rgRSV224 virus; rgRSV224 virus (MOI=1), HeLa cells, GFP expression three days post-virus exposure
  RSV HELA pEC50: 7.3
HeLa cells
  SI TOX HELA: <4

## Cc1cn2nc(C3CCCCN3c3ncnc4cccc(C)c34)cc2nc1N1CC[C@@H](N)C1 (stereo in doubt) [P48, (3 S)-1-(6-methyl-2-(1-(5-methylquinazolin-4-yl)piperidin-2-yl)-pyrazolo[1,5-a]pyrimidin-5-yl)pyrrolidin-3-amine]
rgRSV224 virus
  EC50: 12.6 nM
HeLa cells
  SI TOX HELA: 4.5

## Cc1ccc2ncnc(N3CCCCC3c3cc4nc(N5CCC(N)C5)ccn4n3)c2c1 (stereo in doubt) [P49, (3S)-1-(2-(1-(6-methylquinazolin-4-yl)piperidin-2-yl)pyrazolo[1,5-a]pyrimidin-5-yl)pyrrolidin-3-amine]
rgRSV224 virus
  EC50: 794 nM
HeLa cells
  SI TOX HELA: 4.3

## Cc1ccc2ncnc(N3CCCC[C@H]3c3cc4nc(N5CCC(N)C5)ccn4n3)c2c1 (stereo in doubt) [P51, (S)-1-(2-((S)-1-(6-methylquinazolin-4-yl)piperidin-2-yl)pyrazolo-[1,5-a]pyrimidin-5-yl)pyrrolidin-3-amine]
rgRSV224 virus
  EC50: 316 nM
HeLa cells
  SI TOX HELA: 4.3

## Clc1ccc2ncnc(N3CCCCC3c3cc4nc(N5CCC5)cc(N5CCOCC5)n4n3)c2c1 (stereo not drawn) [P1, 4-(5-(azetidin-1-yl)-2-(1-(6-chloroquinazolin-4-yl)piperidin-2-yl)-pyrazolo[1,5-a]pyrimidin-7-yl)morpholine]
rgRSV224 virus
  EC50: 794 nM
HeLa cells
  SI TOX HELA: 4.4

## Clc1ccc2ncnc(N3CCCC[C@H]3c3cc4nc(N5CCC5)cc(N5CCOCC5)n4n3)c2c1 [P2, (S)-4-(5-(azetidin-1-yl)-2-(1-(6-chloroquinazolin-4-yl)piperidin-2-yl)-pyrazolo[1,5-a]pyrimidin-7-yl)morpholine]
rgRSV224 virus
  EC50: 316 nM
HeLa cells
  SI TOX HELA: 4.4

## Clc1ccc2ncnc(N3CCCC[C@@H]3c3cc4nc(N5CCC5)cc(N5CCOCC5)n4n3)c2c1 [P3, (R)-4-(5-(azetidin-1-yl)-2-(1-(6-chloroquinazolin-4-yl)piperidin-2-yl)pyrazolo[1,5-a]pyrimidin-7-yl)morpholine]
rgRSV224 virus
  EC50: 3980 nM
HeLa cells
  SI TOX HELA: 4.6

## Cc1ccc2ncnc(N3CCCCC3c3cc4nc(N5CCC5)cc(N5CCOCC5)n4n3)c2c1 (stereo not drawn) [P4, 4-(5-(azetidin-1-yl)-2-(1-(6-methylquinazolin-4-yl)piperidin-2-yl)-pyrazolo[1,5-a]pyrimidin-7-yl)morpholine]
rgRSV224 virus
  EC50: 158 nM
HeLa cells
  SI TOX HELA: <4

## Cc1ccc2nc(Cl)nc(N3CCCCC3c3cc4nc(N5CCC5)cc(N5CCOCC5)n4n3)c2c1 (stereo not drawn) [P5, 4-(5-(azetidin-1-yl)-2-(1-(2-chloro-6-methylquinazolin-4-yl)piperidin-2-yl)pyrazolo[1,5-a]pyrimidin-7-yl)morpholine]
rgRSV224 virus
  EC50: 251 nM
HeLa cells
  SI TOX HELA: <5

## Cc1ccc2nc(NS(C)(=O)=O)nc(N3CCCCC3c3cc4nc(N5CCC5)cc(N5CCOCC5)n4n3)c2c1 (stereo not drawn) [P6, N-(4-(2-(5-(azetidin-1-yl)-7-morpholinopyrazolo[1,5-a]pyrimidin-2-yl)piperidin-1-yl)-6-methylquinazolin-2-yl)methanesulfonamide]
rgRSV224 virus
  EC50: 5.01 nM
HeLa cells
  SI TOX HELA: <4.0

## Cc1ccc2nc(NS(C)(=O)=O)nc(N3CCCC[C@@H]3c3cc4nc(N5CCC5)cc(N5CCOCC5)n4n3)c2c1 [P7, (R)—N-(4-(2-(5-(azetidin-1-yl)-7-morpholinopyrazolo[1,5-a]pyrimidin-2-yl)-piperidin-1-yl)-6-methylquinazolin-2-yl)methanesulfonamide]
rgRSV224 virus
  EC50: 2000 nM
HeLa cells
  SI TOX HELA: <4

## Cc1ccc2nc(NS(C)(=O)=O)nc(N3CCCC[C@H]3c3cc4nc(N5CCC5)cc(N5CCOCC5)n4n3)c2c1 [P8, (S)—N-(4-(2-(5-(azetidin-1-yl)-7-morpholinopyrazolo[1,5-a]pyrimidin-2-yl)piperidin-1-yl)-6-methylquinazolin-2-yl)methanesulfonamide]
rgRSV224 virus
  EC50: 7.94 nM
HeLa cells
  SI TOX HELA: <4

## Cc1cccc2nc(NS(C)(=O)=O)nc(N3CCCCC3c3cc4nc(N5CCC5)cc(N5CCOCC5)n4n3)c12 (stereo not drawn) [P9, N-(4-(2-(5-(azetidin-1-yl)-7-morpholinopyrazolo[1,5-a]pyrimidin-2-yl)piperidin-1-yl)-5-methylquinazolin-2-yl)methanesulfonamide]
rgRSV224 virus
  EC50: 5.01 nM
HeLa cells
  SI TOX HELA: <4.6

## CS(=O)(=O)Nc1nc(N2CCCCC2c2cc3nc(N4CCC4)cc(N4CCOCC4)n3n2)c2ccccc2n1 (stereo not drawn) [P10, N-(4-(2-(5-(azetidin-1-yl)-7-morpholinopyrazolo[1,5-a]pyrimidin-2-yl)piperidin-1-yl)quinazolin-2-yl)methanesulfonamide]
rgRSV224 virus
  EC50: 631 nM
HeLa cells
  SI TOX HELA: <4.3

## Cc1ccc2ncnc(N3CCCCC3c3cc4nc(N5CC(N)C5)c(C)cn4n3)c2c1 (stereo not drawn) [P13, 1-(6-methyl-2-(1-(6-methylquinazolin-4-yl)piperidin-2-yl)pyrazolo-[1,5-a]pyrimidin-5-yl)azetidin-3-amine]
rgRSV224 virus
  EC50: 398 nM
HeLa cells
  SI TOX HELA: 4.3

## COCCOC(=O)Nc1nc(N2CCCCC2c2cc3nc(N4CCC4)cc(N4CCOCC4)n3n2)c2cc(N3CCOCC3)ccc2n1 (stereo not drawn) [P14, 2-methoxyethyl 4-(2-(5-(azetidin-1-yl)-7-morpholinopyrazolo[1,5-a]-pyrimidin-2-yl)piperidin-1-yl)-6-morpholinoquinazolin-2-ylcarbamate]
rgRSV224 virus
  EC50: 794 nM
HeLa cells
  SI TOX HELA: <4

## Cc1nc(N2CCCCC2c2cc3nc(N4CCC4)cc(N4CCOCC4)n3n2)c2cc[nH]c2n1 (stereo not drawn) [P15, 4-(5-(azetidin-1-yl)-2-(1-(2-methyl-7H-pyrrolo[2,3-d]pyrimidin-4-yl)-piperidin-2-yl)pyrazolo[1,5-a]pyrimidin-7-yl)morpholine]
rgRSV224 virus
  EC50: 251 nM
HeLa cells
  SI TOX HELA: 4.0

## CCOc1nc(N2CCCCC2c2cc3nc(N4CCC4)cc(N4CCOCC4)n3n2)c2cccnc2n1 (stereo not drawn) [P16, 4-(5-(azetidin-1-yl)-2-(1-(2-ethoxypyrido[2,3-d]pyrimidin-4-yl)-piperidin-2-yl)pyrazolo[1,5-a]pyrimidin-7-yl)morpholine]
rgRSV224 virus
  EC50: 79.4 nM
HeLa cells
  SI TOX HELA: 4.3

## Cc1cccc2ncnc(N3CCCCC3c3cc4nc(N5CCC5)cc(N5CCOCC5)n4n3)c12 (stereo not drawn) [P17, 4-(5-(azetidin-1-yl)-2-(1-(5-methylquinazolin-4-yl)piperidin-2-yl)-pyrazolo[1,5-a]pyrimidin-7-yl)morpholine]
rgRSV224 virus
  EC50: 3.98 nM
HeLa cells
  SI TOX HELA: 4.4

## Cc1cccc2ncnc(N3CCCC[C@@H]3c3cc4nc(N5CCC5)cc(N5CCOCC5)n4n3)c12 [P18, (R)-4-(5-(azetidin-1-yl)-2-(1-(5-methylquinazolin-4-yl)piperidin-2-yl)-pyrazolo[1,5-a]pyrimidin-7-yl)morpholine]
rgRSV224 virus
  EC50: > 1000 nM
HeLa cells
  SI TOX HELA: <4.3

## Cc1cccc2ncnc(N3CCCC[C@H]3c3cc4nc(N5CCC5)cc(N5CCOCC5)n4n3)c12 [P19, (S)-4-(5-(azetidin-1-yl)-2-(1-(5-methylquinazolin-4-yl)piperidin-2-yl)pyrazolo[1,5-a]pyrimidin-7-yl)morpholine]
rgRSV224 virus
  EC50: 10 nM
HeLa cells
  SI TOX HELA: <4.3

## Cc1cn2nc(C3CCCCN3c3ncnc4cccc(C)c34)cc2nc1N1CC(O)C1 (stereo not drawn) [P23, 1-(6-methyl-2-(1-(5-methylquinazolin-4-yl)piperidin-2-yl)pyrazolo-[1,5-a]pyrimidin-5-yl)azetidin-3-ol]
rgRSV224 virus
  EC50: 15.8 nM
HeLa cells
  SI TOX HELA: <4.6

## Cc1cn2nc([C@H]3CCCCN3c3ncnc4cccc(C)c34)cc2nc1N1CC(O)C1 [P24, (R)-1-(6-methyl-2-(1-(5-methylquinazolin-4-yl)piperidin-2-yl)pyrazolo[1,5-a]-pyrimidin-5-yl)azetidin-3-ol]
rgRSV224 virus
  EC50: > 25100 nM
HeLa cells
  SI TOX HELA: <4.6

## Cc1cn2nc([C@@H]3CCCCN3c3ncnc4cccc(C)c34)cc2nc1N1CC(O)C1 [P25, (S)-1-(6-methyl-2-(1-(5-methylquinazolin-4-yl)-piperidin-2-yl)pyrazolo[1,5-a]pyrimidin-5-yl)azetidin-3-ol]
rgRSV224 virus
  EC50: 31.6 nM
HeLa cells
  SI TOX HELA: <4.6

## Cc1cn2nc(C3CCCCN3c3ncnc4cccc(C)c34)cc2nc1N1CC(N)C1 (stereo not drawn) [P26, 1-(6-methyl-2-(1-(5-methylquinazolin-4-yl)piperidin-2-yl)pyrazolo-[1,5-a]pyrimidin-5-yl)azetidin-3-amine]
rgRSV224 virus
  EC50: 25.1 nM
HeLa cells
  SI TOX HELA: 4.3

## COC(=O)Nc1nc(N2CCCCC2c2cc3nc(N4CCC4)cc(N4CCOCC4)n3n2)c2c(C)cccc2n1 (stereo not drawn) [P29, methyl (4-(2-(5-(azetidin-1-yl)-7-morpholinopyrazolo[1,5-a]-pyrimidin-2-yl)piperidin-1-yl)-5-methylquinazolin-2-yl)carbamate]
rgRSV224 virus
  EC50: 398 nM
HeLa cells
  SI TOX HELA: 4.5

## Cc1cccc2nc(C(=N)NO)nc(N3CCCCC3c3cc4nc(N5CCC5)cc(N5CCOCC5)n4n3)c12 (stereo not drawn) [P30, 4-(2-(5-(azetidin-1-yl)-7-morpholinopyrazolo[1,5-a]pyrimidin-2-yl)-piperidin-1-yl)-N-hydroxy-5-methylquinazoline-2-carboximidamide]
rgRSV224 virus
  EC50: 631 nM
HeLa cells
  SI TOX HELA: 4.6

## CCOc1nc(N2CCCCC2c2cc3nc(N4CCC4)cc(N4CCOCC4)n3n2)c2c(C)cccc2n1 (stereo not drawn) [P31, 4-(5-(azetidin-1-yl)-2-(1-(2-ethoxy-5-methylquinazolin-4-yl)piperidin-2-yl)pyrazolo[1,5-a]pyrimidin-7-yl)morpholine]
rgRSV224 virus
  EC50: 158 nM
HeLa cells
  SI TOX HELA: 4.8

## Cc1ccc(C)c2c(N3CCCCC3c3cc4nc(N5CCC5)cc(N5CCOCC5)n4n3)ncnc12 (stereo not drawn) [P66, 4-(5-(azetidin-1-yl)-2-(1-(5,8-dimethylquinazolin-4-yl)piperidin-2-yl)-pyrazolo[1,5-a]pyrimidin-7-yl)morpholine]
rgRSV224 virus
  EC50: 100 nM

Reference: patent US9981976B2, “Piperidine substituted pyrazolo[1,5-A]pyrimidine derivatives with inhibitory activity on the replication of the respiratory syncytial virus (RSV)” (priority 2014, dated 2018)
